Consider 5 compounds from US20260166051A1, “COMPOUNDS AND METHODS FOR TREATING CANCER” (The Regents of the University of California, priority 2022, published 2026).

“Also recorded” adds a separate entry of the source. Like-named read-outs stand apart in the source and are kept apart here.

Data set [1] has as its system patient-derived glioma cells. In words: Secondary screening: self-renewal in patient-derived glioma cells. It is filed as cell-based, human. Conditions: patient-derived glioma cells (GBM). On the procedure: Cells were seeded under serum-free conditions into untreated plates in DMEM/F12 media, supplemented with 10 ml/500 mL of B27 (Invitrogen), 0.145 U/ml recombinant insulin (Eli Lilly, Indiana), 0.68 U/mL heparin (Fresenius Kabi, Illinois), 20 ng/ml fibroblast growth factor 2 (bFGF, Sigma) and 20 ng/ml epidermal growth factor (EGF, Sigma). After 10 days in culture, spheres formed from singles cells were counted. Certain compounds tested in sphere-forming assay according to the present disclosure are shown below. Results are shown in FIGS. 6, 7, 8, 9-19, 26, 33-37.

A short description of data set [2]: In vivo BBB penetration of compound 2. The following applies: mice.
The test system of the next data set is HK-374 glioma stem cells. In words: Sphere-forming assay: self-renewal of HK-374 glioma stem cells. It is filed as cell-based, human. Conditions: n=3. The text has this:
FIG. 42. Inhibition of self-renewal of HK-374 glioma stem cells in the absence of radiation.
FIG. 43. Inhibition of self-renewal of HK-374 glioma stem cells in combination with 4 Gy.
Primary human glioma cell lines were established at UCLA as described (Hemmati et al., PNAS 2003; Characteristics of specific gliomasphere lines can be found in Laks et al., Neuro-Oncology 2016). Primary glioblastoma cells were propagated as gliomaspheres in serum-free conditions in T25 flasks in DMEM/F12, supplemented with B27, EGF, bFGF and heparin as described previously (Vlashi et al., Journal of the NCI, 2009, 101, 350-9). All cells were grown in a humidified atmosphere at 37° C. with 5% CO2. The unique identity of all patient-derived specimen was confirmed by DNA fingerprinting (Laragen, Culver City, CA). All lines were routinely tested for mycoplasma infection (MycoAlert, Lonza). […]
Cells were seeded under serum-free conditions into untreated plates in DMEM/F12 media, supplemented with 10 ml/500 mL of B27 (Invitrogen), 0.145 U/ml recombinant insulin (Eli Lilly, Indiana), 0.68 U/mL heparin (Fresenius Kabi, Illinois), 20 ng/ml fibroblast growth factor 2 (bFGF, Sigma) and 20 ng/ml epidermal growth factor (EGF, Sigma). After 10 days in culture, spheres formed from singles cells were counted. […]

For the next data set, the system named is HK374 cells. Nature of the data set: In vivo treatment of HK374 tumors, then in vitro extreme limiting dilution assay. Also noted: species or system NSG mice. On the procedure: FIGS. 39A-D. FIG. 39A NSG mice were injected with HK374 cells. After 2 weeks post grafting, mice received a single dose of 10 Gy and 5 daily injections/week of MXC-017 or saline for 2 weeks. Tumors were harvested and an in vitro extreme limiting dilution assay was performed. […] FIG. 39D Elimination of GSCs was reflected by the complete loss of cells with self-renewing capacity.
(§1) After two weeks of treatment the tumors were harvested, processed into single cells and the number of glioma cells with sphere-forming capacity (glioma stem cells) was determined in a functional assay (extreme limiting dilution assay). […] (FIG. 40A).

The next data set has as its system cytosolic beta-catenin. Nature of the data set: Western blotting of patient-derived glioblastoma cells. It is filed as cell-based, human. The following applies: Western blot. From the text:
(§2) Compound 2 was identified in an unbiased phenotypic screen and MCX analogs were synthesized without knowledge of the actual molecular target. […] Western blotting confirmed inhibition of the downstream targets with downregulation of p-Erk, p-Akt and upregulation of cytosolic beta-catenin (FIG. 4).
A general note: A western blot detects proteins with antibodies after separation by electrophoresis.

In a further data set the test system is p-ERK. The data set is described as above. It counts as cell-based, human. The following applies: Western blot.
Description: as §2

The test system of another data set is p-AKT. Described as above. It is filed as cell-based, human. Conditions: Western blot.
Description: as §2

Data set [3] concerns non-stem glioblastoma cells. In words: Reprogramming assay (phenotype conversion, ZsGreen-cODC reporter, flow cytometry). It is filed as cell-based, human. Conditions: spontaneous and radiation-induced. How it is done:
Primary glioblastoma cells were engineered to express a fusion protein of ZsGreen and the C-terminal degron of ornithine decarboxylase. This construct reports for lack of 26S proteasome activity and cells with low proteasome activity are enriched for cells with tumor-initiating properties. For reprogramming experiments, cells with low proteasome activity (ZsGreen-positive) were removed by FACS. ZsGreen-negative cells were treated and 5 days later the number of radiation-induced ZsGreen-positive cells was assessed by flow cytometry.
For orientation: A flow cytometer gives signals particle by particle.

The nature of data set [4]: Histology of major organs (kidneys, lung, spleen, heart, liver). It is filed as in vivo, mice. The following applies: 50 mg/kg, 2 weeks, 5 days on, 2 days off.
The subject of a further data set is PDOX models of GBM. Nature of the data set: Survival in PDOX models of GBM. It counts as in vivo, mice.
Data set [5] relates to Nestin-positive glioma stem cells. In words: Immunofluorescent staining of brains of glioma bearing mice. It counts as in vivo. The following applies: combined treatment with radiation and MXC-017. The text has this:
(§3) FIGS. 41A-B. Immunofluorescent staining of brains of glioma bearing mice using antibodies against Olig2 and Nestin. Combined treatment with radiation and MXC-017 eliminated Nestin-positive glioma stem cells in the tumors while not effecting the sensitive normal tissue cell population of Olig2-positive oligodendrocytes in the brain. Nuclei were counterstained.

Data set [6] concerns Olig2-positive oligodendrocytes. The description is as above. It counts as in vivo. Conditions: combined treatment with radiation and MXC-017.
Description: as §3

The test system of another data set is normal tissue cell lines. In words: Toxicity in normal tissue cell lines (NIH3T3 fibroblasts, EOC20 microglia, human astrocytes, murine neural stem/progenitor cells). It counts as cell-based. The following applies: alone or in combination with radiation.
Description: FIGS. 5A-D. Toxicity of the analogs MXC017, 079 and 021 in fibroblasts (NIH3T3, FIG. 5A), microglia cells (EOC20, FIG. 5B), human astrocytes (FIG. 5C) or murine neural stem/progenitor cells (FIG. 5D).
as §2

A short description of data set [7]: Tolerability and body weight in mice. It counts as in vivo, NSG mice.
Data set [8] is described as follows: PK study, plasma and brain concentration by mass spectrometry. It counts as in vivo. Conditions: mice; for Kp: mouse, brain/plasma, 50 mg/kg. How it is done: FIGS. 38A and 38B. PK studies for MXC-017 and MXC-079 Mice were treated with a single dose of the novel compounds at 50 mg/kg. Plasma and brain samples were taken at indicated time points and compound concentration measured by mass spectrometry.
as §1

The mark [9] stands for this setting: alone or in combination with radiation.
[10] abbreviates: single dose 50 mg/kg, brain versus plasma, read-out: enrichment in brain tissue.
The mark [11] stands for this setting: read-out: brain to plasma ratio.

Regarding `C=C1c2ccccc2NC(=O)N1Cc1ccc(S(=O)(=O)N2CCCCC2)cc1` [Compound 2, 4-Methylene-3-(4-(piperidin-1-ylsulfonyl)benzyl)-3,4-dihydroquinazolin-2(1H)-one], the inhibition of self-renewal result in [1] was “inhibits self-renewal”; in data set [1] (listed as compound 2), “confirming activity”. Besides, the “BBB penetration in vivo” value in data set [2] is listed as “penetrates the BBB”; in [2] (listed as compound 2), “confirmed the in silico prediction of BBB penetration”.

For `O=C(NCc1ccc(S(=O)(=O)N2CCCCC2)cc1)n1ccc2cc(Cl)ccc21` [MHD003, 5-chloro-N-(4-(piperidin-1-ylsulfonyl)benzyl)-1H-indole-1-carboxamide], the “self renewal of glioma stem cells, % of irradiated controls” value in the data set on HK-374 glioma stem cells (in combination with 4 Gy, controls DMSO, p<0.0001) stood at 6%. Further, the “self-renewal of HK-374 glioma stem cells in the absence of radiation (reduced to)” value in the data set on HK-374 glioma stem cells (unirradiated cells, one-way ANOVA) was 14%.

On to `O=C(NCc1ccc(S(=O)(=O)N2CCCCC2)cc1)n1ccc2ccccc21` [MXC017, N-(4-(Piperidin-1-ylsulfonyl)benzyl)-1H-indole-1-carboxamide], for which the “number of GSCs” value in the data set on HK374 cells (MXC-017 alone, 2 weeks treatment, extreme limiting dilution assay) is “significantly reduced”; in the data set on HK374 cells (combination of radiation (single dose 10 Gy) and MXC-017), “eliminated all GSCs”. The “frequency of glioma stem cells” value in the data set with HK374 cells (setting [9]) is reported as “significantly reduced”. In addition, the “number of sphere forming cells” value in the data set with HK374 cells (setting [9]) is given as “reduced the number of sphere forming cells”. The “cytosolic beta-catenin level (TNIK target)” value with cytosolic beta-catenin is given as “stabilization”. Moreover, the “p-ERK level (FLT3 target)” value with p-ERK is “down-regulation”. Also, in the data set on p-AKT, the “p-AKT level (FLT3 target)” value is “down-regulation”. The “phenotype conversion of non-stem glioma cells into glioblastoma-initiating cells” value in data set [3] (listed as MCX017) is “prevent spontaneous and radiation-induced phenotype conversion; also recorded: prevented radiation-induced phenotype conversion”. Also, the “histological signs of toxicity in major organs” value in [4] is recorded as “did not reveal any toxicity”. Also, the median survival result in the data set with PDOX models of GBM (MXC-017 alone, five daily doses/week) is recorded as “small but significant increase”; with PDOX models of GBM (single dose 10 Gy plus MXC-017 50 mg/kg, 5 days on, 2 days off, prolonged from 29 days, p<0.0001 log-rank), 60 days. The “Nestin-positive glioma stem cells in the tumors” value in [5] was “eliminated”. In addition, the “effect on oligodendrocytes (normal tissue) in the brain” value in [6] is on record as “not effecting; also recorded: had no effect”. The “toxicity in normal tissue cell lines” value in the data set on normal tissue cell lines is “no relevant toxicity”. Besides, the tolerability entry in [7] (5 daily injections/week for 2 weeks) was “well tolerated; also recorded: well tolerated in mice with no acute clinical toxicity”. Moreover, the “body weight during observation time of 2 weeks” value in data set [7] (setting [9]) is recorded as “allowed animals to gain weight”. The peak brain concentrations result in data set [8] is on record as “in the micromolar range”. Further, the Kp in [8] (setting [10]) and in data set [8] (setting [11]) was 4.55 in each case.

Consider `CCN(CC)S(=O)(=O)c1ccc(CNCc2ccccc2N)cc1` [MXC021, 4-(((2-Aminobenzyl)amino)methyl)-N,N-diethylbenzenesulfonamide], for which the “toxicity in normal tissue cell lines” value with normal tissue cell lines is recorded as “no relevant toxicity”.

Consider `O=C(NCc1ccc(S(=O)(=O)N2CCCCCC2)cc1)n1ccc2ccccc21` [MXC079, N-(4-(Azepan-1-ylsulfonyl)benzyl)-1H-indole-1-carboxamide], for which the “cytosolic beta-catenin level (TNIK target)” value in the data set on cytosolic beta-catenin is given as “stabilization”. Also, the “p-ERK level (FLT3 target)” value in the data set with p-ERK is “down-regulation”. Also, the “p-AKT level (FLT3 target)” value with p-AKT was “down-regulation”. The “phenotype conversion of non-stem glioma cells into glioblastoma-initiating cells” value in [3] (listed as MCX079) was “prevent spontaneous and radiation-induced phenotype conversion; also recorded: prevented radiation-induced phenotype conversion”. Further, the “toxicity in normal tissue cell lines” value in the data set on normal tissue cell lines was “no relevant toxicity”. Moreover, in data set [8], the peak brain concentrations entry is “in the micromolar range”. Moreover, the Kp was 2.63 in data set [8] (setting [10]) and 2.6 in [8] (setting [11]).
